Entries after “also recorded” stand apart in the source; their conditions may differ.
Experiments:
TRAMPC1 cells = experiment: mouse TRAMPC1 cell growth / clonogenic assay; assay type: cell-based; settings: for sensitivity to each drug treatment alone: TRAMPC1, enzalutamide (5 μM); for sensitivity of mouse prostate cancer cells: FIG. 12
Source text: FIG. 10 is an image and a graph showing mouse TRAMPC1 cell growth assay. […] Representative crystal violet stains are shown above graph.
These cells are important model because they can be placed in syngeneic C57B1 mice with a complete immune system.
This cell line from mouse PCa allows the evaluation of treatments in vivo, using immune-competent […] mice, which are syngenic with the TRAMPC1 cells.

LNCaP-Enza-Res cells = experiment: growth of enzalutamide-resistant LNCaP cells (MTS); assay type: cell-based, human; settings: for growth of enzalutamide-resistant LNCaP cells versus parental: single fat oxidation inhibitor, 48 hours
Source text: FIG. 16 is a set of four graphs split over two pages. […] Data is normalized to the vehicle treatment (no drugs). […] Data is normalized to the vehicle treatment (no drugs). […] Data is normalized to the vehicle treatment (no drugs). […] Data is normalized to the vehicle treatment (no drugs).
FIG. 17 is a pair of graphs showing the effects of treatment on the indicated cells. […] Data is normalized to the vehicle treatment (no drugs). […] Both concentrations are in microMolar (μM).
(§1) Parental LNCaP and VCaP cells treated with vehicle were used as their corresponding controls.

LNCaP CPT1A-KD clones = experiment: growth of LNCaP CPT1A-KD clones with enzalutamide; assay type: cell-based, human; settings: enzalutamide (MDV3100) versus control clone
Experimental: (C) Relative growth of LNCaP-KD clones compared to control (NTshRNA) with Enza treatment. *p<0.001, compared to control treatment. ap<0.01 compared to control clone. (NTshRNA—left; CPT1Ash1—center; and CPT1 Ash2 at each timepoint for FIGS. 6A and 6B.)
Data is normalized to the vehicle (0 μM, no drug) treatment. Data represents mean±SD.
Etomoxir targets CPT1. […] It is possible that the decrease in AR observed with etomoxir is due to off-targets effects of the drug (besides CPT1), and/or the cells may need to be studied at earlier time points when apoptotic and ER stress mechanisms have not been set in motion.

[1] = test system: enzalutamide-resistant PCa cells; experiment: colony formation of enzalutamide-resistant versus parental PCa cells; assay type: cell-based
Source text: Colony formation was examined after 2 weeks by crystal violet stain and analyzed with image J.

primary PCa cells = primary PCa cells derived from prostatectomies treated with etomoxir; assay type: cell-based, human; settings: data not shown
Source text: The effects of etomoxir in primary PCa cells derived from prostatectomies carried out at University of Colorado hospital were examined.

VCaP tumor = experiment: VCaP xenograft tumor growth in mice treated with etomoxir; assay type: in vivo; settings: VCaP xenografts, etomoxir 40 mg/kg/day for 21 days, p<0.05
Source text: (§2) (E) Stain of xenografts slices with phospho-4EBP1 antibody. (F) Western blot of LNCaP cells treated with vehicle (“V”) or etomoxir (“E”), C-Casp3=cleaved-caspase 3. (G) Putative diagram of mTOR signaling pathway.

LNCaP cells = experiment: ER stress markers in etomoxir-treated LNCaP cells; assay type: cell-based, human
Source text: (C) Phosphorylation of the α-subunit of the translation initiation factor eIF2 (p-eIF2a) and expression of LC3 cleavage marker of autophagy. (D) Agarose gel showing the spliced (activated, 447 bp) XBP1 factor that regulates the response to ER stress.

PCa cell lines = experiment: growth/viability of PCa cell lines with etomoxir; assay type: cell-based, human; settings: etomoxir (75 μM in FIG. 2D), p<0.01
Source text: as §2

BPH-1 and WPMY-1 cells = experiment: viability of benign prostate cells with etomoxir; assay type: cell-based; settings: etomoxir 75 μM
Source text: as §2

mTOR = experiment: ceramides and mTOR signaling after etomoxir; assay type: cell-based
Source text: as §2

androgen receptor (AR) = experiment: AR gene expression and Western blot in LNCaP cells; assay type: cell-based, human; settings: etomoxir 48 hours, p<0.05
Experimental: (A) Relative AR gene expression after vehicle (“V”) or etomoxir (“E”) treatment in LNCaP cells. ARfl=full length AR; ARv7=AR variant 7; AR total=all AR isoforms; PSA=prostate specific antigen; NKX3.1=Homeodomain-containing transcription factor regulated by androgens. […] (B) Western blot of full length AR and ARV7 variant in LNCaP cells treated with etomoxir for 48 hours.

PCa cells = experiment: 14C-lipid oxidation in PCa cells; assay type: cell-based
VCaP-Enza-Res cells = experiment: growth of enzalutamide-resistant VCaP cells; assay type: cell-based, human; settings: single fat oxidation inhibitor, 48 hours
Source text: as §1

[2] = test system: tumors of human cells resistant to enzalutamide; experiment: enzalutamide-resistant human tumors in nude mice treated with ranolazine; assay type: in vivo; settings: injections started on day 5

CNC(=O)c1ccc(N2C(=S)N(c3ccc(C#N)c(C(F)(F)F)c3)C(=O)C2(C)C)cc1F [enzalutamide]
sensitivity to each drug treatment alone (TRAMPC1 cells): not very sensitive
growth in the presence of enzalutamide (LNCaP-Enza-Res cells; LNCaP-enzalutamide resistant cells versus parental, p<0.001): can grow in the presence of enzalutamide
cell growth of CPT1A-deficient LNCaP clones (LNCaP CPT1A-KD clones): more sensitive to enzalutamide treatment; also recorded: synergistic effect on cell growth
growth in the presence of enzalutamide compared to parental controls [1]: grow better in the presence of enzalutamide

CCOC(=O)[C@@]1(CCCCCCOc2ccc(Cl)cc2)CO1 [etomoxir]
sensitivity of mouse prostate cancer cells (TRAMPC1 cells): sensitive
glucose uptake (primary PCa cells): momentary increase in glucose uptake
viability compared to matched non-cancerous cells (primary PCa cells): concomitant decrease in viability
tumor growth (VCaP tumor): Decreased VCaP tumor growth; also recorded: also observed
autophagy markers (LC3) (LNCaP cells): increase in autophagy markers (LC3)
markers of ER stress (LNCaP cells; ATF4, GADD34, GRP78, CHOP, p<0.001): increase in markers of ER stress
growth / viability of PCa cells (PCa cell lines): decrease their growth and died
growth / viability of PCa cells (PCa cell lines; listed as Etomoxir): decreases the viability
growth effect in benign cells (BPH-1 and WPMY-1 cells): not seen
mTOR and downstream effectors S6K and 4EBP-1 (mTOR; etomoxir treatment): decreased mTOR and its downstream effectors S6K and 4EBP-1
palmitate-containing ceramides (mTOR; etomoxir treatment (not shown)): increased palmitate-containing ceramides
expression of androgen receptor (AR) and its variant forms (androgen receptor (AR)): significant decrease
14C-lipid oxidation (PCa cells): able to block 14C-lipid oxidation

C1CCC(C(CC2CCCCN2)C2CCCCC2)CC1 (stereo not shown) [perhexiline]
sensitivity of mouse prostate cancer cells (TRAMPC1 cells): sensitive

COc1ccccc1OCC(O)CN1CCN(CC(=O)Nc2c(C)cccc2C)CC1 (stereo not shown) [ranolazine]
sensitivity of mouse prostate cancer cells (TRAMPC1 cells): sensitive
sensitivity to each drug treatment alone (TRAMPC1 cells): not very sensitive
growth of enzalutamide-resistant VCaP cells versus parental (VCaP-Enza-Res cells): more sensitive to ranolazine than their corresponding parental controls
growth of enzalutamide-resistant VCaP cells versus parental (VCaP-Enza-Res cells; listed as Ranolazine): inhibits growth
growth of enzalutamide-resistant LNCaP cells versus parental (LNCaP-Enza-Res cells): more sensitive to ranolazine than their corresponding parental controls
growth of enzalutamide-resistant LNCaP cells versus parental (LNCaP-Enza-Res cells; listed as Ranolazine): inhibits growth
sensitivity of enzalutamide-resistant tumors [2]: show signs of sensitivity
